In US20240217911A1, “A hydroxycarboxylic acid for the treatment of cancer” (UNIVERSITÄT ZÜRICH, priority 2021, published 2024):
“Also recorded” adds a separate entry of the source.

What was measured:
Type in all cases: in vivo, mouse
[1] = tested on: CD8+ T cells; experiment: flow analysis of CD8+ T cells in MC-38 tumours; conditions: flow analysis in MC-38 tumor
Description: FIG. 17. A, MC-38 tumor volume curve (mm^3) and B, tumorweight (g) in WT mice treated with GPR84 agonist, 3-OH dodecanoic acid (3-OH Dodeca), GPR84 antagonist, GPR84 antagonist & 3-OH Dodeca or saline (Ctrl). C, Bar charts of flow analysis in tumor corresponding to the groups described in A and B. Two-way ANOVA with Dunnett's correction for multiple comparisons (A & C). Means±SEM analyzed by Kruskal-Wallis and Dunn's correction for multiple comparison (B). Experiments were performed at least twice, n=5.
(§1) Each metabolite was dissolved in dimethyl sulfoxide (DMSO) to reach the stock concentration of 100 mM. For mice injections, stock solution of each metabolite was diluted 1:500 in saline to reach final concentration of 200 uM and 200 uL/mouse were injected intraperitoneally on day 6, day 9 and day 12-post tumour cell injection. Metabolites used: 3-Hydroxydodecanedioic acid (R and S forms) (collaborators UZH), Dodecanedioic acid (Sigma), Decanoic acid (Sigma), Unidecanoic acid (Sigma), Dodecanoic acid (Sigma), Tridecanoic acid (Sigma), Tetradecanoic acid (Angene), 3-Hydroxydecanoic acid (Sigma), 3-Hydroxydodecanoic acid (Sigma), 3-Hydroxytetradecanoic acid (Angene). GPR84 receptor blockade was performed in the subcutaneous tumour model by injecting 200 uL/mouse of 200 uM of GPR84 antagonist GLPG1205 (MCE MedChemExpress).

[2] = tested on: MC-38 tumours; experiment: MC-38 subcutaneous CRC tumour model; conditions: for anti-tumour effect, tumour volume and weight (FIG. 15): 5-FU or both; for anti-tumour effect, tumour volume and weight (FIG. 11-13): metabolite 200 uM, 200 uL/mouse i.p. day 6, 9, 12, vs vehicle; for tumour reduction, tumor volume and weight (FIG. 17A-B): GPR84 agonist/antagonist 200 uM
Description: WT C57BL/6JRJ were purchased from Janvier Labs (France). All mice were kept in specific-pathogen-free conditions. Males and female littermates between 8-12 weeks were used for all the experiments. All animal experiments were performed according to Swiss animal welfare legislation and approved by the local veterinary office (Veterinaramt des Kantons Zurich). […]
For CRC injection models, MC38 cells were suspended in DMEM high glucose cell culture medium mixed 1:1 with Matrigel and 300,000 cells injected subcutaneously into the flanks, and mice euthanized […] after injection. Tumour development was measured every 3 days using a digital calliper. Tumour volume was calculated using the ellipsoid formula: 4/3*3.14*Length/2*(Width/2)^2, where the shorter dimension was used as width and depth. Mice were terminated 14 days after subcutaneous injection or when tumour volume reached 1 cm^3 or the length reached 2 cm. For the other solid tumours subcutaneous injection models, B16 melanoma cells were suspended in DMEM high glucose cell culture medium mixed 1:1 with Matrigel and 200,000 cells injected into both flanks of the animal. Lewis lung carcinoma cells LLC1.1 were suspended in DMEM high glucose cell culture medium mixed 1:1 with Matrigel and 200,000 cells injected in the right flank of a mouse. PD-1 blockade was performed in the subcutaneous tumour model by injecting of 200 μg/mouse anti-PD1(CD279) antibody (BioXCell; clone 29F.1A12) or IgG isotype control (BioXCell; clone 2a3) i.p. on days 6, 9 and 12 after subcutaneous MC-38 cells injection. 5-Fluorouracil (5-FU) was administered by i.p injections of 20 mg/kg 5-FU dissolved in DMSO at days 6, 9, and 12.
as §1

[3] = tested on: LLC1.1 lung cancer; experiment: LLC1.1 Lewis lung carcinoma subcutaneous tumour model; conditions: LLC.1 lung cancer; vs vehicle
Description: (§2) WT C57BL/6JRJ were purchased from Janvier Labs (France). All mice were kept in specific-pathogen-free conditions. Males and female littermates between 8-12 weeks were used for all the experiments. All animal experiments were performed according to Swiss animal welfare legislation and approved by the local veterinary office (Veterinaramt des Kantons Zurich).
(§3) Clostridiales strains Eubacterium hallii: DSM3353T, Faecalibacterium prausnitzii: DSM17677, Roseburia intestinalis: DSM14610T, Anaerostipes caccae: DSM14662T were obtained from PharmaBiome AG, Zurich (sometimes referred to as butyrate producers, 4 clostridia consortia CC4, or BP). All strains were cultivated at 37° C. in yeast extract, casitone and fatty acid (YCFA) medium (Lopez et al. 2012. Appl Environ Microbiol 78, 420-428). Strains were maintained under anoxic CO2 atmosphere using Hungate techniques. […] Viability of cells was confirmed using propidium iodide staining measured by flow cytometry. […]
(§4) For CRC injection models, MC38 cells were suspended in DMEM high glucose cell culture medium mixed 1:1 with Matrigel and 300,000 cells injected subcutaneously into the flanks, and mice euthanized […] after injection. Tumour development was measured every 3 days using a digital calliper. Tumour volume was calculated using the ellipsoid formula: 4/3*3.14*Length/2*(Width/2)^2, where the shorter dimension was used as width and depth. […]

[4] = tested on: B16 melanoma; experiment: B16 melanoma subcutaneous tumour model; conditions: vs vehicle
Description: as §2, §3, §4

| Compound | expression of granzyme B and IFNγ by CD8+ T cells (FIG. 17C) [1] | anti-tumour effect, tumour volume and weight (FIG. 15) ([2]; 3-hydroxydodecanoic acid) | anti-tumour effect, tumour volume and weight (FIG. 14) ([2]; 3-hydroxydodecanoic acid, anti-PD-1 or both) | anti-tumour effect, tumour volume and weight (FIG. 11-13) [2] | anti-tumour effect, tumour volume and weight (FIG. 11-13) ([2]; listed as CH3(CH2)8 CHOH—(CH2)—CO2H) | anti-tumour effect, tumour volume and weight (FIG. 16 B) [3] | anti-tumour effect, tumour volume and weight (FIG. 16 A) [4] | tumour reduction, tumor volume and weight (FIG. 17A-B) ([2]; 200 uL/mouse i.p. day 6, 9, 12) | tumour reduction, tumor volume and weight (FIG. 17A-B) ([2]; 200 uL/mouse i.p. day 6, 9, 12, listed as 2-(hexylthio)pyramidine-4,6-diol) |
| --- | --- | --- | --- | --- | --- | --- | --- | --- | --- |
| CCCCCCCCCC(O)CC(=O)O (stereo not shown) [3-hydroxydodecanoic acid] | similarly increased expression of granzyme B and IFNγ by CD8+ T cells | comparable anti-tumour effect | comparable anti-tumour effect | most favourable anti-tumour effect; also recorded: anti-tumour effect of the bacterial metabolites was specifically induced by 3-hydroxydodecanoic acid | inhibited tumour growth | clear anti-tumour effect | clear anti-tumour effect |  |  |
| O=c1[nH]cc(F)c(=O)[nH]1 [5-FU, 5-fluorouracil, reference compound] |  | comparable anti-tumour effect |  |  |  |  |  |  |  |
| O=c1nc(OC[C@@H]2COCCO2)cc2n1CCc1cc(C#CC3CC3)ccc1-2 [GPR84 antagonist, reference compound] | entirely lost this anti-tumour immunological change |  |  |  |  |  |  | completely abrogated the anti-tumour effect of 3-hydroxydodecanoic acid |  |
| CCCCCCSc1nc(O)cc(=O)[nH]1 [ZQ-16, 2-(hexylthio)pyramidine-4,6-diol, reference compound] | similarly increased expression of granzyme B and IFNγ by CD8+ T cells |  |  |  |  |  |  | limit tumour growth in a model of cancer in vivo | inhibited tumour growth |
